# ChEMBL document CHEMBL1208694, “Aryl sulfonamides containing tetralin allylic amines as potent and selective bradykinin B1 receptor antagonists” (Bioorg Med Chem Lett, 2010)
# What was measured:
# [1] = Oral bioavailability in rat at 10 mg/kg; settings: in vivo
# B1 bradykinin receptor [2] = target: T1, B1 bradykinin receptor (Homo sapiens, UniProt P46663); assay: Displacement of [3H]Lys-desArg9-BK from human bradykinin B1 receptor
# T1 sequence (P46663 whole entry): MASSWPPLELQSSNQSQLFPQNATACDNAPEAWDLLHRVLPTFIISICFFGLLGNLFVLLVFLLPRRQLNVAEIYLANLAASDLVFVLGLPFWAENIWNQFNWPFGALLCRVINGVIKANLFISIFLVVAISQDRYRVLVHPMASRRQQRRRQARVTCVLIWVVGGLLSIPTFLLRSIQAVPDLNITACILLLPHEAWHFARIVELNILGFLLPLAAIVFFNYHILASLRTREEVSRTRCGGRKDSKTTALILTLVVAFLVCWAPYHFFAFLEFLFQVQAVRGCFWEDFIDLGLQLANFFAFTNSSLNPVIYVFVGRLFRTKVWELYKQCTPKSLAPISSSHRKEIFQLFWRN
# [3] = Half life in rat at 1 mg/kg, iv; format: ADME, organism-based; parameters: dose 1 mg/kg, route intravenous; settings: in vivo
# [4] = Volume of distribution at steady state in rat at 1 mg/kg, iv; format: ADME, organism-based; parameters: dose 1 mg/kg, route intravenous; settings: in vivo, read-out: Vdss
# [5] = Clearance in rat at 1 mg/kg, iv; format: ADME, organism-based; parameters: dose 1 mg/kg, route intravenous; settings: in vivo
# [6] = Metabolic stability in rat liver microsomes; format: ADME, Microsome; settings: read-out: Stability
# B1 bradykinin receptor [7] = target: T1, B1 bradykinin receptor; assay: Antagonist activity at human bradykinin B1 receptor assessed as inhibition of Lys-desArg9-BK-induced calcium flux; format: functional
Compound,bioavailability [1],Ki (B1 bradykinin receptor [2]),half-life [3],Vd [4],clearance [5],microsomal CLint [6],IC50 (B1 bradykinin receptor [7])
C=C(CNC1CCC1)c1ccc2c(c1)CCC[C@H]2NC(=O)C[C@@H](NS(=O)(=O)c1cccc(C(F)(F)F)c1)c1ccccc1,,3.4 nM,,,,,44 nM
C=C(CN(C)C)c1ccc2c(c1)CCC[C@H]2NC(=O)C[C@@H](NS(=O)(=O)c1cccc(C(F)(F)F)c1)c1ccccc1,,78 nM,,,,,154 nM
O=C(C[C@@H](NS(=O)(=O)c1cccc(C(F)(F)F)c1)c1ccccc1)N[C@@H]1CCCc2cc(C3(CN4CCCCC4)CC3)ccc21,,14 nM,,,,,88 nM
C=C(CNCC1CC1)c1ccc2c(c1)CCC[C@H]2NC(=O)C[C@@H](NS(=O)(=O)c1cccc(C(F)(F)F)c1)c1ccccc1,,16 nM,,,,,105 nM
CC(CN1CCCCC1)c1ccc2c(c1)CCC[C@H]2NC(=O)C[C@@H](NS(=O)(=O)c1cccc(C(F)(F)F)c1)c1ccccc1 (stereo partly specified),,34 nM,,,,,316 nM
C=C(CN1CCC1)c1ccc2c(c1)CCC[C@H]2NC(=O)C[C@@H](NS(=O)(=O)c1cccc(C(F)(F)F)c1)c1ccccc1,,12 nM,,,,,206 nM
C=C(CN1CCCCC1)c1ccc2c(c1)CCC[C@H]2NC(=O)C[C@@H](NS(=O)(=O)c1cccc(C(F)(F)F)c1)c1ccccc1,,3.3 nM,,,,,41 nM
C=C(CN1CC[C@@H](O)C1)c1ccc2c(c1)CCC[C@H]2NC(=O)C[C@@H](NS(=O)(=O)c1cccc(C(F)(F)F)c1)c1ccccc1,,12 nM,,,,,15 nM

# Further molecules by falling IC50 (B1 bradykinin receptor [7]), results first:
bioavailability [1],Ki (B1 bradykinin receptor [2]),half-life [3],Vd [4],clearance [5],microsomal CLint [6],IC50 (B1 bradykinin receptor [7]),Compound
,11 nM,,,,,78 nM,C=C(CNC(C)(C)C)c1ccc2c(c1)CCC[C@H]2NC(=O)C[C@@H](NS(=O)(=O)c1cccc(C(F)(F)F)c1)c1ccccc1
,30 nM,,,,,47 nM,C=C(CNC1CCCC1)c1ccc2c(c1)CCC[C@H]2NC(=O)C[C@@H](NS(=O)(=O)c1cccc(C(F)(F)F)c1)c1ccccc1
15%,4.6 nM,2.4 h,5.86 L/kg,33.2 mL/min/kg,240 µL/min/mg,42 nM,C=C(CNC(C)C)c1ccc2c(c1)CCC[C@H]2NC(=O)C[C@@H](NS(=O)(=O)c1cccc(C(F)(F)F)c1)c1ccccc1
,21 nM,,,,,32 nM,C=C(CNCCO)c1ccc2c(c1)CCC[C@H]2NC(=O)C[C@@H](NS(=O)(=O)c1cccc(C(F)(F)F)c1)c1ccccc1
,42 nM,,,,,23 nM,C=C(CNCCOC)c1ccc2c(c1)CCC[C@H]2NC(=O)C[C@@H](NS(=O)(=O)c1cccc(C(F)(F)F)c1)c1ccccc1
10%,0.7 nM,1.5 h,3.62 L/kg,30.6 mL/min/kg,282 µL/min/mg,9.7 nM,C=C(CN1CCCC1)c1ccc2c(c1)CCC[C@H]2NC(=O)C[C@@H](NS(=O)(=O)c1cccc(C(F)(F)F)c1)c1ccccc1
,3.5 nM,,,,,3.9 nM,C=C(CN1CC[C@H](O)C1)c1ccc2c(c1)CCC[C@H]2NC(=O)C[C@@H](NS(=O)(=O)c1cccc(C(F)(F)F)c1)c1ccccc1
,,,,,,1.3 nM,C=C(CN1CCCC1)c1ccc2c(c1)CCC[C@H]2NC(=O)C[C@@H](NS(=O)(=O)c1cccc(C(F)(F)F)c1)c1ccc(F)cc1
